Laboratory results reported in a melting point compilation (Tetko et al.; mined from patent text by program, amines drawn as free bases though some values may be those of a salt).

In the case of `O=C(Cc1cccnc1)N1CCC(=C2c3ccc(Cl)cc3CCc3c(Cl)ccnc32)CC1`, the melting point is reported as 59.8 to 63.5 °C. For `COCCn1nc2c(N)nc3ncccc3c2c1CC(C)(C)O`, the melting point was 233 to 236 °C. `CCc1ncc(CCCOc2c(C)cc(-c3nnn(C)n3)cc2C)n1C` gave a melting point of 96 to 98 °C. In the case of `O=C1CC2Cc3ccccc3C2N1` (configuration not stated), the melting point is reported as 150 to 153 °C. In the case of `O=C(O)Cc1csc(-c2ncccc2O)n1`, the melting point is reported as 175 to 176 °C. `Cc1noc(CN2CCC[C@@H](OCc3cc(C(F)(F)F)cc(C(F)(F)F)c3)[C@H]2c2ccccc2)n1` (relative stereo) gave a melting point of 85 to 86 °C. Compound `CCCN(C(N)=S)c1ccc(Cl)cc1Cl` has a melting point of 121 °C. `CCOC(=O)C=Nc1cc(Cl)ccc1C(=O)O` showed a melting point of 166 to 167 °C. With `CCCc1c2c(cc3c(=O)cc(C(=O)OCC)oc13)C(O)C(C(=O)OCC)(C(=O)OCC)O2` (configuration not stated) the melting point was 131 to 133 °C. `COC(CN(C)C(=O)Nc1nnc(C(C)Oc2cccc(Cl)c2)s1)OC` (configuration not stated) showed a melting point of 127 to 130 °C. In the case of `Cn1c(CC#N)ccc1C(=O)c1ccc([N+](=O)[O-])cc1`, the melting point is reported as 167 to 169 °C. For `CC(C)n1c2ccccc2c2sccc(=O)c21`, the melting point was 154 to 156 °C. Compound `COc1ccccc1Oc1c(N=[N+]=[N-])nc(N2CCOCC2)nc1OCCOCc1ccccc1` has a melting point of 146 to 148 °C. For `Cc1csc(=Nc2ccccc2C)s1`, the melting point was 65.5 to 69 °C. Compound `COc1ccc(C(CN(C)C)C2(O)C=CCCC2)cc1` (configuration not stated) has a melting point of 128 to 130 °C. With `O=Cc1ccc2cc(O)ccc2c1` the melting point was 154 to 156 °C. With `O=C(O)c1c(Cc2cc3c(cc2Cl)OCO3)c(-c2ccccn2)nn1CC1CCC(C(=O)O)CC1` (configuration not stated) the melting point was 261 °C. Work on `CCOC(=O)c1c(SC)c(N=O)c2ccccn12` yielded a melting point of 134 to 135 °C. For `CC(CN(C)C)OC(=O)c1ccc(NC(=O)CCn2cnc3c(=O)[nH]cnc32)cc1` (configuration not stated), the melting point was 270 to 275 °C. `CC(CO)NC1=NS(=O)(=O)c2cnccc2N1` (configuration not stated) showed a melting point of 213 to 216 °C. For `COc1cc2c(cc1OC)CC(=O)NC(=O)C2`, the melting point was 235 °C. For `COc1ccc(OC(c2ccc(OC)cc2)C(Cl)(Cl)Cl)cc1` (configuration not stated), the melting point was 90 °C. `CC(=O)CCCSc1cc(C(C)(C)C)c(O)c(C(C)(C)C)c1` gave a melting point of 65 to 67 °C. `O=C(CBr)C1=Cc2ccccc2OC1` gave a melting point of 87 °C. `Cc1sc(-c2cc([N+](=O)[O-])cc([N+](=O)[O-])c2)nc1O` showed a melting point of 247 to 248 °C. With `COC(=O)Cc1ccc(N[C@@H](CCC(N)=O)C(=O)O)cc1` the melting point was 183 to 184 °C. In the case of `CC(C)(C)NC(=O)c1cnc(Cl)cc1-c1ccc(F)cc1`, the melting point is reported as 168 to 173 °C. With `CN1C(=O)C(C)(C)C(=O)Nc2ccc(C#N)cc21` the melting point was 250 to 251 °C. Work on `CN(C)C=Nc1c(F)ccc(F)c1C#N` yielded a melting point of 56 to 60 °C. `Brc1cccc(Br)c1OC1C=CC(Oc2c(Br)cccc2Br)C1` (configuration not stated) gave a melting point of 205 to 206 °C. `C[C@@H]1O[C@](C#CC2CC2)(C(F)(F)F)c2c(ccc(F)c2F)NC1=O` (relative stereo) gave a melting point of 219 to 220 °C. For `Fc1nc(/C=C/c2ccccc2)cn1C(c1ccccc1)(c1ccccc1)c1ccccc1`, the melting point was 167 to 170 °C. With `COc1cc(C(=O)Cl)ccc1NC(=O)c1ccccc1-c1ccccc1` the melting point was 121 to 123 °C. With `CC(C)(CNC(=O)COCC(=O)OCOC(=O)Cc1ccccc1Nc1c(Cl)cccc1Cl)SN=O` the melting point was 66 °C. `CC1=C(CC(NC(=O)c2ccc(Cl)cc2)NC(=N[N+](=O)[O-])Nc2cccnc2)C(C)(C)CCC1` (configuration not stated) gave a melting point of 217 to 218 °C. With `CN1CCCC1=NC(=O)Nc1ccccc1` the melting point was 140 to 144 °C. Compound `O=C(O)CCCOc1ccc(C23CC4CC(CC(C4)C2)C3)cc1Cl` has a melting point of 164 to 166 °C. With `O=[N+]([O-])c1ccc(C#CCCN2CC=C(c3ccccc3)CC2)nc1` the melting point was 133 to 134 °C. In the case of `Cc1ccc(Sc2ccccc2CN(C)C)c([N+](=O)[O-])c1`, the melting point is reported as 109 to 111 °C. With `COC(=O)C(=CNC1CC1)C(=O)C=Cc1ccc2c(c1)OCO2` the melting point was 158 to 160 °C. Work on `CC(C)(C)COc1ccc([N+](=O)[O-])cc1Br` yielded a melting point of 86 to 88 °C. In the case of `Nc1nc(N)c2ncn(COCCOC=O)c2n1`, the melting point is reported as 238 to 240 °C.
